Measurements reported in publication PMC8248439, “Activation, Structure, Biosynthesis and Bioactivity of Glidobactin‐like Proteasome Inhibitors from Photorhabdus laumondii” (Chembiochem, 2021).
Like-named read-outs stand apart in the source and are kept apart here.

Assays:
Assay type in all cases: biochemical
[1] = biological target: T1, yeast 20S proteasome (yCP) β2 subunit (TL) (Saccharomyces cerevisiae, UniProt P25043); experiment: X-ray crystal structure ([…] Å), mM soaking; weaker TL inhibition
T1 construct: gene PUP1; yeast 20S proteasome core particle
T1 sequence (P25043 30-261): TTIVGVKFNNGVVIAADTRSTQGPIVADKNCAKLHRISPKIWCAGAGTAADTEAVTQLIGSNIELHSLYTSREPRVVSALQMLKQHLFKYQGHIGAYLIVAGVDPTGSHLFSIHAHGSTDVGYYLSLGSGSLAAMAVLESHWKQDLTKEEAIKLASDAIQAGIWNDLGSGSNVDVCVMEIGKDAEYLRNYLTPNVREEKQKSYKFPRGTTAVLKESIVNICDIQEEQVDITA

[2] = biological target: T2, yeast 20S proteasome (yCP) β5 subunit (ChTL) (Saccharomyces cerevisiae, UniProt P23724+P30656); experiment: X-ray crystal structure ([…] Å) and ChTL activity inhibition assay of yCP
T2 construct: gene PRE2; yeast 20S proteasome core particle; with β6 subunit of yCP
T2 sequence (P30656 76-287): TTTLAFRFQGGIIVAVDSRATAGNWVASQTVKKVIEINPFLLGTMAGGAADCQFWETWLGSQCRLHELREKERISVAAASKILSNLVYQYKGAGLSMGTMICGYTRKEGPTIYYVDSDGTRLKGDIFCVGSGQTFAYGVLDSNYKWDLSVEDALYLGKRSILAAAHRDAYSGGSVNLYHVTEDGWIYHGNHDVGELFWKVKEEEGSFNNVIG
T2 sequence (P23724 20-241): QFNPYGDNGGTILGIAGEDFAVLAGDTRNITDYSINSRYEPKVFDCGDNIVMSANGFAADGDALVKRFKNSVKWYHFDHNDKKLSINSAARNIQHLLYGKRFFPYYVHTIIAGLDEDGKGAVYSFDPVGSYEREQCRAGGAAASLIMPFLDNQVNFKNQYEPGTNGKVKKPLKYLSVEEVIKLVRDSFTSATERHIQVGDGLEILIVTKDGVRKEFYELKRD

[3] = biological target: T2, yeast 20S proteasome (yCP) β5 subunit (ChTL); experiment: as above; remark: listed apart in the source
[4] = biological target: T1, yeast 20S proteasome (yCP) β2 subunit (TL); experiment: X-ray crystal structure ([…] Å), mM soaking; weaker TL inhibition; remark: listed apart in the source

| SMILES | IC50 [1] [nM] | IC50 [2] [nM] | IC50 [3] [nM] | IC50 [4] [nM] |
| --- | --- | --- | --- | --- |
| CC1C=CC(=O)NCCC(O)CC(NC(=O)C(NC(=O)C=CC=Cc2ccccc2)C(C)O)C(=O)N1 (stereo not shown) [compound 4] | > 200 | 73 |  |  |
| CC1C=CC(=O)NCCC(O)CC(NC(=O)C(NC(=O)C=Cc2ccccc2)C(C)O)C(=O)N1 (stereo not shown) [compound 5] |  |  | 107 | > 200 |
